Reference: ChEMBL document CHEMBL5375999, “Discovery of a Dual Tubulin and Neuropilin-1 (NRP1) Inhibitor with Potent In Vivo Anti-Tumor Activity via Pharmacophore-based Docking Screening, Structure Optimization, and Biological Evaluation” (J Med Chem, 2023)
pIC50: −log10 of the molar value. The source made the active and inactive calls. The rule behind the calls is not given here.

Tests used:
PC-3 [1] = experiment: Antitumor activity against human PC-3 cells xenografted in BALB/c nude mouse assessed as reduction in tumor volume at 5 to 10 mg/kg, ip administered every 4 days for 20 days; type: functional, organism-based; settings: dose 5-10 mg/kg, time 20.0 day
PC-3 [2] = experiment: Induction of apoptosis in human PC-3 cells assessed as late apoptotic cells at 2.5 uM by Annexin-V FITC staining based flow cytometry analysis (reference value: 1.67%); type: functional
[3] = target: Vascular endothelial growth factor receptor 2 (Homo sapiens, UniProt P35968); experiment: Inhibition of VEGF-induced VEGFR2 signal pathway in HUVECs assessed as reduction in p-VEGFR2 level at 12.5 uM relative to control; type: cell-based; settings: HUVEC
[4] = target: Neuropilin-1 (Homo sapiens) (UniProt O14786); experiment: Inhibition of [125I]-VEGF-A165 binding to NRP1 (unknown origin) transfected in HUVECs at 12 uM incubated for 2 hrs by plate reader analysis relative to control; type: cell-based; settings: HUVEC
Sequence of Neuropilin-1 (Homo sapiens) (O14786 whole entry): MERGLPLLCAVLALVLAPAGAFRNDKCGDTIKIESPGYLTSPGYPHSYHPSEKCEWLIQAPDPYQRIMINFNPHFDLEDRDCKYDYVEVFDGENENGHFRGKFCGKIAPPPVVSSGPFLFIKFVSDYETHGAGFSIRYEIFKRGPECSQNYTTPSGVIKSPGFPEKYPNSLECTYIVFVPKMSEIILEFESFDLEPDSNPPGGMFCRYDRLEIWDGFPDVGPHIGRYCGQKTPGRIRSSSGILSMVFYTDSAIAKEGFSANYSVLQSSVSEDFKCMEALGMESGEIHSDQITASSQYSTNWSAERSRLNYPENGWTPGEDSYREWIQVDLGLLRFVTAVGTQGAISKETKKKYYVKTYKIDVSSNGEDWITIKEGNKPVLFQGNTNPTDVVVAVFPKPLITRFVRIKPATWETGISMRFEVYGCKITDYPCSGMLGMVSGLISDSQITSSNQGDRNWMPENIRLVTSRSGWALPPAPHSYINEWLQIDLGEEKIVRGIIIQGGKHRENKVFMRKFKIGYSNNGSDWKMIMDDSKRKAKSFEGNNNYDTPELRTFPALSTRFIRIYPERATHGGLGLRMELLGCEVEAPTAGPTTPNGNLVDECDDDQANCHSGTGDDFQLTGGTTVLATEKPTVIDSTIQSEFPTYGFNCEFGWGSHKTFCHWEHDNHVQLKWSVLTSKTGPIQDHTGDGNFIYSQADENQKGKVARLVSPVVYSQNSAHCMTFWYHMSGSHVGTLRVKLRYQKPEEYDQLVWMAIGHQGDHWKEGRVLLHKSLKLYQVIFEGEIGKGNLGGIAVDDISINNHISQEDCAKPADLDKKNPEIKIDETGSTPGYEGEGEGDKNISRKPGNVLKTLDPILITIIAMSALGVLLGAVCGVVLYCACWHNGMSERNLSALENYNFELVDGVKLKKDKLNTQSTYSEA

[5] = target: RAC-gamma serine/threonine-protein kinase (Homo sapiens, UniProt Q9Y243); experiment: Inhibition of AKT3 (unknown origin)
Sequence of RAC-gamma serine/threonine-protein kinase (Q9Y243 whole entry): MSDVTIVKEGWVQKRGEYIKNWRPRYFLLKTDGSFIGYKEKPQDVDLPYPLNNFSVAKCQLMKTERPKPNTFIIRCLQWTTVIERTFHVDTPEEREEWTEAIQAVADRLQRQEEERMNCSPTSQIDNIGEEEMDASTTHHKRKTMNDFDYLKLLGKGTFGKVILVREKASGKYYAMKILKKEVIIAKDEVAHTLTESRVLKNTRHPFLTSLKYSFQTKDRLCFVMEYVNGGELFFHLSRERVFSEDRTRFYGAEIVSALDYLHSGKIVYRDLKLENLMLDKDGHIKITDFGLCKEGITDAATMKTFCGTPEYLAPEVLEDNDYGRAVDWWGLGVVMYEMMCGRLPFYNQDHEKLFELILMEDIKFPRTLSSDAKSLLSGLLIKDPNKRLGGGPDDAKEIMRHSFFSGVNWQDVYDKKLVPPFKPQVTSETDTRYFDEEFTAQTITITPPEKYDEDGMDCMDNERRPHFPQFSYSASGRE

PC-3 [6] = experiment: Induction of apoptosis in human PC-3 cells assessed as late apoptotic cells at 0.5 uM by Annexin-V FITC staining based flow cytometry analysis (reference value: 1.67%); type: functional
PC-3 [7] = experiment: Induction of cell cycle arrest in human PC-3 cells assessed as G0/G1 phase cells at 2.5 uM by flow cytometry analysis (reference value: 94.76%); type: functional
[8] = target: Atypical kinase COQ8A, mitochondrial (Homo sapiens, UniProt Q8NI60); experiment: Inhibition of ADCK3 (unknown origin)
Sequence of Atypical kinase COQ8A, mitochondrial (Q8NI60 whole entry): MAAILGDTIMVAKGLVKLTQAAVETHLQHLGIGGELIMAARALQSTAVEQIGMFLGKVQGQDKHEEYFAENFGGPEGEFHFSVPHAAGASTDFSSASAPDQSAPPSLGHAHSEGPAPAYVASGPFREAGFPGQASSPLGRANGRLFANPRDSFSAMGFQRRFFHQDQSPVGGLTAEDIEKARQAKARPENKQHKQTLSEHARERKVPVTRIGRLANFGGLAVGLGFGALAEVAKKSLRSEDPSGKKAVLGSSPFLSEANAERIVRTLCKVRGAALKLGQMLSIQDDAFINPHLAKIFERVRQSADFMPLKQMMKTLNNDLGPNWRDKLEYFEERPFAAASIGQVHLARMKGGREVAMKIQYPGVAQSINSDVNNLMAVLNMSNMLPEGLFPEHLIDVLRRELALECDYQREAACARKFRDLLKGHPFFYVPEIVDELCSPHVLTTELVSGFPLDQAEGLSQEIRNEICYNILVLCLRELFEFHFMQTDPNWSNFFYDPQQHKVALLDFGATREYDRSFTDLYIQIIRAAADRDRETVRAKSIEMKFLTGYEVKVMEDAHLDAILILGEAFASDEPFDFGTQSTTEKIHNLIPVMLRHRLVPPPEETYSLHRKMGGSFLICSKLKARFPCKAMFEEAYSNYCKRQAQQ

[9] = Toxicity in BALB/c mouse xenografted with human PC-3 cells assessed as change in kidney morphology at 5 to 10 mg/kg, ip administered every 4 days for 20 days by H and E staining based inverted microscopic assay; type: organism-based; settings: in vivo, 480 h, dose 5-10 mg/kg, time 20 day
HUVEC = experiment: Antiinvasive activity against HUVECs at 0.1 to 12.5 uM incubated for 24 hrs by crystal violet staining based optical microscopic analysis; type: functional, cell-based; settings: Homo sapiens, dose 0.1-12.5 µM
PC-3M-1E8 = experiment: Cytotoxicity against human PC-3M-1E8 cells assessed as inhibition of cell viability incubated for 48 hrs by MTT assay; type: functional, cell-based
CWR22R = experiment: Cytotoxicity against human 22Rv1 cells assessed as inhibition of cell viability incubated for 48 hrs by MTT assay; type: functional, cell-based
PC-3 [10] = experiment: Induction of cell cycle arrest in human PC-3 cells assessed as G0/G1 phase cells at 0.1 uM by flow cytometry analysis (reference value: 94.76%); type: functional
PC-3 [11] = experiment: Induction of apoptosis in human PC-3 cells assessed as necrotic cells at 12.5 uM by Annexin-V FITC staining based flow cytometry analysis (reference value: 0.059%); type: functional
PC-3 [12] = experiment: Induction of apoptosis in human PC-3 cells assessed as early apoptotic cells at 2.5 uM by Annexin-V FITC staining based flow cytometry analysis (reference value: 1.51%); type: functional
Activin receptor type-1 = Activin receptor type-1 (Homo sapiens, UniProt Q04771); experiment: Inhibition of ACVR1 (unknown origin)
PC-3M = experiment: Cytotoxicity against human PC-3M cells assessed as inhibition of cell viability incubated for 48 hrs by MTT assay; type: functional, cell-based
PC-3 [13] = experiment: Induction of cell cycle arrest in human PC-3 cells assessed as G0/G1 phase cells at 0.5 uM by flow cytometry analysis (reference value: 94.76%); type: functional
[14] = target: Mitogen-activated protein kinase kinase kinase 20 (Homo sapiens, UniProt Q9NYL2); experiment: Inhibition of ZAK (unknown origin)
PC-3 [15] = experiment: Induction of apoptosis in human PC-3 cells assessed as early apoptotic cells at 0.5 uM by Annexin-V FITC staining based flow cytometry analysis (reference value: 1.51%); type: functional
[16] = target: Serine/threonine-protein kinase PLK1 (Homo sapiens, UniProt P53350); experiment: Inhibition of PLK1 (unknown origin)
[17] = AUC in Sprague-Dawley rat at 1.5 mg/kg, po measured upto 24 hrs by LC-MS/MS analysis; type: ADME, organism-based; parameters: dose 1.5 mg/kg, time < 24 hrs, route po; settings: in vivo
[18] = target: Serine/threonine-protein kinase 38 (Homo sapiens, UniProt Q15208); experiment: Inhibition of NDR1 (unknown origin)
PC-3 [19] = experiment: Induction of cell cycle arrest in human PC-3 cells assessed as increase in p-cdc2 expression at 0.5 to 12.5 uM incubated for 48 hrs by Western blotting analysis; type: functional, cell-based; settings: dose 0.5-12.5 µM
[20] = target: ALK tyrosine kinase receptor (Homo sapiens, UniProt Q9UM73); experiment: Inhibition of ALK (unknown origin)
Sequence of ALK tyrosine kinase receptor (Q9UM73 whole entry): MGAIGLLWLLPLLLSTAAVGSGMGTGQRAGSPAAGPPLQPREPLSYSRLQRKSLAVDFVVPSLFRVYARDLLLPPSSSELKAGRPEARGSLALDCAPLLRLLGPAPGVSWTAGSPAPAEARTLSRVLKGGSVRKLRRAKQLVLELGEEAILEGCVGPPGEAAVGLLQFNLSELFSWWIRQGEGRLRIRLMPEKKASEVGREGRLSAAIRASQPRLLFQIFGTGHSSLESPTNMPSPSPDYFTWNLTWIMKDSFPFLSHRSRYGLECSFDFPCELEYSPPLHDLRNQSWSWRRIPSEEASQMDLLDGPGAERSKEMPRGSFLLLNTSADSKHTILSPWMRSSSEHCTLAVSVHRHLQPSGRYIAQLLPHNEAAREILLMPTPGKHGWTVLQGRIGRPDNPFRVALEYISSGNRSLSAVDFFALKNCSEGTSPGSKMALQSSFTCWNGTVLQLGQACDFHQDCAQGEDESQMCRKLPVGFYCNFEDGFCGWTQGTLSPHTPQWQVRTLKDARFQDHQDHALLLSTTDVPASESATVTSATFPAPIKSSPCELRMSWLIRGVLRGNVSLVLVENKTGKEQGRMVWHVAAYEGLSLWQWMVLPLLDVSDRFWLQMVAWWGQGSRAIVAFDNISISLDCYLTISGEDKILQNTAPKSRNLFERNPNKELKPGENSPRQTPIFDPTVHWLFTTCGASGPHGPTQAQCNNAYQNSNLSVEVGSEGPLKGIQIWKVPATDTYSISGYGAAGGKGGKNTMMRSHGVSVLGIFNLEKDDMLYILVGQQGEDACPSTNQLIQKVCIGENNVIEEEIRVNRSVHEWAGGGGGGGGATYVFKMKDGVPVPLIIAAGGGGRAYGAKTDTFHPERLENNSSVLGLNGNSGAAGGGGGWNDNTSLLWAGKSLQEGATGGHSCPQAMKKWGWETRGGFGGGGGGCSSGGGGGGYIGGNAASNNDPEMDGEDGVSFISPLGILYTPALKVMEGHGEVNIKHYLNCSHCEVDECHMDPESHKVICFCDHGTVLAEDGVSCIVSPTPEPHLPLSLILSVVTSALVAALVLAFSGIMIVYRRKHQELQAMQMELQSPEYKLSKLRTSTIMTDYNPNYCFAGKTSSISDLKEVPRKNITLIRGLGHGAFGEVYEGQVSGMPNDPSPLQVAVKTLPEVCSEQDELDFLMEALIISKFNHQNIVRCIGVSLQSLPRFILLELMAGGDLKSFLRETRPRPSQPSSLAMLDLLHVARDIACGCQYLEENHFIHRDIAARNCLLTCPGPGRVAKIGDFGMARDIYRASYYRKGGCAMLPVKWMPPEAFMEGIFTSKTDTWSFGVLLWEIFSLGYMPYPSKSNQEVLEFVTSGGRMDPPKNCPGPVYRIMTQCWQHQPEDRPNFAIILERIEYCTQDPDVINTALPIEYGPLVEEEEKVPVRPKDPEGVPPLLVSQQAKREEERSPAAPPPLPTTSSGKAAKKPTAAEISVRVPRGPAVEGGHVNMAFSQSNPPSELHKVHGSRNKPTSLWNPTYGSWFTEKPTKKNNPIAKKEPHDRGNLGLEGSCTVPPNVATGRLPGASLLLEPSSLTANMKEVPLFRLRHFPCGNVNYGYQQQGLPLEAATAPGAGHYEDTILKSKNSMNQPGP

[21] = target: Serine/threonine-protein kinase 4 (Homo sapiens, UniProt Q13043); experiment: Inhibition of MST1 (unknown origin)
[22] = target: Serine/threonine-protein kinase pim-1 (Homo sapiens, UniProt P11309); experiment: Inhibition of PIM1 (unknown origin)
[23] = target: Proto-oncogene tyrosine-protein kinase ROS (Homo sapiens, UniProt P08922); experiment: Inhibition of ROS1 (unknown origin)
PC-3 [24] = experiment: Inhibition of colony formation in human PC-3 cells incubated for 10 days by crystal violet staining based assay; type: functional, cell-based; settings: dose 0.1-12.5 µM, time 10.0 day
[25] = target: Mitogen-activated protein kinase 3 (Homo sapiens, UniProt P27361); experiment: Inhibition of ERK1 (unknown origin)
[26] = Toxicity in BALB/c mouse xenografted with human PC-3 cells assessed as change body weight at 5 to 10 mg/kg, ip administered every 4 days for 20 days; type: organism-based; settings: in vivo, 480 h, dose 5-10 mg/kg, time 20 day
[27] = target: Serine/threonine-protein kinase ICK (Homo sapiens, UniProt Q9UPZ9); experiment: Inhibition of ICK (unknown origin)
Sequence of Serine/threonine-protein kinase ICK (Q9UPZ9 whole entry): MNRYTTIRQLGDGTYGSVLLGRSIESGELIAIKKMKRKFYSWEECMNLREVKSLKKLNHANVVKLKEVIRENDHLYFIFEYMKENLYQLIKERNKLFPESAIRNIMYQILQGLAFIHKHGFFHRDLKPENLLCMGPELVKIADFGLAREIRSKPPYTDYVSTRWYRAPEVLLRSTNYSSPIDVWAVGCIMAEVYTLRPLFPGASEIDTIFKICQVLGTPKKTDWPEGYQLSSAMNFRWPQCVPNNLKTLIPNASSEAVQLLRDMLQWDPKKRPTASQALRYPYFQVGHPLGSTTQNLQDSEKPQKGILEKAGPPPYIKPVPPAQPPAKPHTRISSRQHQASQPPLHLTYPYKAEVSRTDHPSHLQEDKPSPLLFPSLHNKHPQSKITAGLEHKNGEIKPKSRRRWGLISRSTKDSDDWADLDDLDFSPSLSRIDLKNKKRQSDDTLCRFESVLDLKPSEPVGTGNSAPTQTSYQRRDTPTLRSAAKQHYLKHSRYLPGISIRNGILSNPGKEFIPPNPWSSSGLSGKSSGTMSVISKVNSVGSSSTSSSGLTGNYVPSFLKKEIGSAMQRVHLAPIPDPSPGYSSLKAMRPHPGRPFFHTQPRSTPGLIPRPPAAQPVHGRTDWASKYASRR

PC-3 [28] = experiment: Induction of cell cycle arrest in human PC-3 cells assessed as S phase cells at 0.5 uM by flow cytometry analysis (reference value: 2%); type: functional
PC-3 [29] = experiment: Induction of apoptosis in human PC-3 cells assessed as early apoptotic cells at 12.5 uM by Annexin-V FITC staining based flow cytometry analysis (reference value: 1.51%); type: functional
Tubulin (Homo sapiens) [30] = target: T1, Tubulin (Homo sapiens) (UniProt P68371+Q9H4B7+P0DPH7+P68366+Q13509+Q71U36+P04350+Q3ZCM7+P07437+P68363+Q9BQE3+Q6PEY2+Q13885+Q9BVA1+Q9BUF5); experiment: Inhibition of tubulin polymerization in human PC-3 cells assessed as increase in microtubule dispersion incubated for 48 hrs by immunofluorescence assay; type: cell-based; settings: dose 0.1-12.5 µM
Activin receptor type-2A = Activin receptor type-2A (Homo sapiens, UniProt P27037); experiment: Inhibition of ACVR2 (unknown origin)
Sequence of Activin receptor type-2A (P27037 whole entry): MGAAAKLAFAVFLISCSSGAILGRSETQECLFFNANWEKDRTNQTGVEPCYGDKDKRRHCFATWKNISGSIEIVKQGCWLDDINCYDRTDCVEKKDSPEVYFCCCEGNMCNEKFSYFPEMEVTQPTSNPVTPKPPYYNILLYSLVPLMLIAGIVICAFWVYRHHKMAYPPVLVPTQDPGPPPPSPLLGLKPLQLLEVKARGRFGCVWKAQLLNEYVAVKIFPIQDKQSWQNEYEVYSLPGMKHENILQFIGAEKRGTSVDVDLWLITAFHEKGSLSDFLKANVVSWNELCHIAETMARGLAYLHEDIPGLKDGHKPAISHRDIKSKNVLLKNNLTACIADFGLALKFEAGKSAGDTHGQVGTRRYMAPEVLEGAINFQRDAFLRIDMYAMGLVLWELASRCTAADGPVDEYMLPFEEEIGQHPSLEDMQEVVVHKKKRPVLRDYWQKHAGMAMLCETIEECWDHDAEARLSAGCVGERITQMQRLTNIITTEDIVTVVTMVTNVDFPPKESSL

Tubulin (Homo sapiens) [31] = target: T1, Tubulin (Homo sapiens); experiment: Inhibition of tubulin polymerization (unknown origin) at 12 uM by spectrophotometric analysis relative to control; type: protein-complex assay

For `COc1ccc(/C=C\c2cc(OC)c(OC)c(OC)c2)cc1NC(=O)CCC(=O)N[C@@H](CCCNC(=N)N)C(=O)O`, the Activity (PC-3 [1]) was “Active”, the Activity (PC-3 [2]) was 5.6% and the inhibition [3] was 50%. The inhibition [4] was 94%, the pIC50 [5] was under 5.00 and the Activity (PC-3 [6]) was 5.32%. The Activity (PC-3 [7]) was 84.75%, the pIC50 [8] was under 5.00 and the Activity [9] was “Non-Toxic”. The Activity (HUVEC) was “Active”, the Activity (PC-3M-1E8) was “Active” and the Activity (CWR22R) was “Active”. For the same molecule, the Activity (PC-3 [10]) was 93.57%, the Activity (PC-3 [11]) was 0.083% and the Activity (PC-3 [12]) was 3.63%. For the same molecule, the pIC50 (Activin receptor type-1) was under 5.00, the Activity (PC-3M) was “Active” and the Activity (PC-3 [13]) was 85.03%. For the same molecule, the pIC50 [14] was under 5.00, the Activity (PC-3 [15]) was 2.95% and the pIC50 [16] was under 5.00. The AUC at 24 h [17] was 4300 ng·h/mL, the pIC50 [18] was under 5.00 and the Activity (PC-3 [19]) was “Active”. For the same molecule, the pIC50 [20] was under 5.00, the pIC50 [21] was under 5.00 and the pIC50 [22] was under 5.00. For the same molecule, the pIC50 [23] was under 5.00, the inhibition (PC-3 [24]) was “Dose-Dependent Effect” and the pIC50 [25] was under 5.00. For the same molecule, the Activity [26] was “Non-Toxic”, the pIC50 [27] was under 5.00 and the Activity (PC-3 [28]) was 6.01%. For the same molecule, the Activity (PC-3 [29]) was 4.55%, the inhibition (Tubulin (Homo sapiens) [30]) was “Dose-Dependent Effect” and the pIC50 (Activin receptor type-2A) was under 5.00. It also gave an inhibition (Tubulin (Homo sapiens) [31]) of 96%.
